Measurements from ChEMBL document CHEMBL4476865, “Neurotrypsin inhibitors” (2013).

Tests used:
Neurotrypsin = target: T1, Neurotrypsin (Homo sapiens, UniProt P56730); assay: Inhibition of human neurotrypsin
T1 sequence (P56730 whole entry): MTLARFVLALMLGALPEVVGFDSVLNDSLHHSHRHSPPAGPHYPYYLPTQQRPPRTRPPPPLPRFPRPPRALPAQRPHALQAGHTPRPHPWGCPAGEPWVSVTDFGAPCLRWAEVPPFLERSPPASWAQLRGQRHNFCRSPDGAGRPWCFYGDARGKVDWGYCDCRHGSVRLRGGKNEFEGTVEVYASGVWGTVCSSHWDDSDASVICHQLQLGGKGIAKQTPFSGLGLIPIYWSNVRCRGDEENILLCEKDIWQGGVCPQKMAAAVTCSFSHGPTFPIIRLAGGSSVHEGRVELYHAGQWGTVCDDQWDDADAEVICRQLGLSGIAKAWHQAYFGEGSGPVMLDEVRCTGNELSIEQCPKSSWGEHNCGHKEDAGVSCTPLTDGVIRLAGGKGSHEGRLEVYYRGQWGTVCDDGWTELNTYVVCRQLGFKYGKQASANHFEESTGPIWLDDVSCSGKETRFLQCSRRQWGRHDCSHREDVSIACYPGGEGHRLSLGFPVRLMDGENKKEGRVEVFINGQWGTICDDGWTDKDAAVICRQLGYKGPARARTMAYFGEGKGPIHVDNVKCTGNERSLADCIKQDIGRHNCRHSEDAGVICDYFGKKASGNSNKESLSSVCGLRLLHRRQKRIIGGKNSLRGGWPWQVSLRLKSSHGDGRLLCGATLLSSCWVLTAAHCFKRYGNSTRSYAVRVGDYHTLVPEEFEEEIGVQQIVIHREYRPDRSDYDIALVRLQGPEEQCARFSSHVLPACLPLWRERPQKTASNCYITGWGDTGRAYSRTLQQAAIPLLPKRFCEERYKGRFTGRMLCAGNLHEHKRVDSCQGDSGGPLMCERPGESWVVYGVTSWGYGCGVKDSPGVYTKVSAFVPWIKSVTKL

[1] = Inhibition of hog trypsin assessed as reduction in liberation of free para-nitroanilide using S-2222 substrate incubated for 20 to 30 mins; set-up: species or system Sus scrofa
[2] = Toxicity in C57/BL6 mouse assessed as weight loss dosed 3 times at 25 mg/kg, ip equivalent of active ingredient administered with 8 hrs gap between dose 1 and dose 2 and 16 hrs gap between dose 2 and dose 3 (reference value: 5.67%); type: organism-based; details: in vivo

Row | IC50 (Neurotrypsin) | IC50 [1] | SMILES | Activity [2]
1 | 3.3 µM | – | O=C(NCc1ccc(Cl)s1)c1ccc(NC(=O)c2ccc(-c3nc4cc(Cl)c(Cl)cc4[nH]3)cc2)c(C(=O)O)c1 | –
2 | – | > 150 µM | NCCCC[C@H](N)C(=O)O.O=C(Nc1ccc(Cl)cc1)c1ccc(NC(=O)c2ccc(-c3nc4cc(Cl)c(Cl)cc4[nH]3)cc2)c(C(=O)O)c1 | 5.52%
